Assay [1] deals with T1, Thrombin (Homo sapiens, UniProt P00734).
T1 construct: purchased Haematologic Technologies (Essex Jct., Vt.)
Put plainly: Enzymatic activity monitored using rhodamine protease substrates (fluorescence). The assay is classed as biochemical. To be noted: substrate 250 μM, thrombin 500 pM, 37° C. How it is done:
(§1) The substrates 1 and 3 were used at 250 μM. Thrombin was used at a concentration of 500 pM and caspase-3 was used at a concentration of 10 nM. For thrombin a buffer consisting of 50 mM Tris (pH 7.4),200 mM NaCl, 5 mM CaCI2 and 0.01% (v/v) Tween-20 (THB) was used. The buffer for caspase-3 (CAB) consisted of 20 mM HEPES (pH 7.4), 100 mM NaCi, inM EDTA, 0.1% CHAPS,10% (w/v) sucrose and 10 mM DTT. 50 µl of the buffer containing the substrate at a concentration of 500 JIM were transferred into a well of a black 96-well Microfluor plate (Dynex Technologies, Chantilly, Va.). The reaction was initiated by the addition of 50 μL of the buffer containing the enzyme at a concentration of 1 nM for thrombin or 20 nM for caspase-3. The hydrolysis of rhodamine substrates was measured with a Spectramax Gemini XS spectrofluorimeter (Molecular devices, Sunnyvale, Calif.) thermostated at 37° C. using an excitation wavelength of 490 nm, an emission wavelength of 530 nm and a cutoff wavelength of 515 nm.

In assay [2] the target is T2, caspase-3 (Homo sapiens, UniProt P42574).
T2 sequence (P42574 29-175 limits assumed): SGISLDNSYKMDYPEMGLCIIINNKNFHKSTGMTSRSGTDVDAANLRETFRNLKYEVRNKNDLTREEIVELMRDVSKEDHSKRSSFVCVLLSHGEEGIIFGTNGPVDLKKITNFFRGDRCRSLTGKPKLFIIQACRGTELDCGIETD
T2 sequence (P42574 176-277 limits assumed): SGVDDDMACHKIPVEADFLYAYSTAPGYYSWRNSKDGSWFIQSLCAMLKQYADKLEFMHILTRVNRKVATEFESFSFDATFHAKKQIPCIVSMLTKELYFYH
The description is as above. Type of assay: biochemical. Details: made in house. Particulars: substrate 250 μM, caspase-3 10 nM, 37° C. How it is done: as §1

These results are taken from patent US20050153306A1, “Fluorogenic enzyme substrates and uses thereof” (IRM LLC, priority 2003, published 2005).

Take “(Ac-DEVD)2-rhodamine-Lys(Ac) [compound 1]”: the “fluorescence signal (enzymatic hydrolysis of the rhodamine substrate)” value in assay [1] is “only a slight increase in fluorescence”; in assay [2], “strong fluorescent signal”; in assay [2] (listed as (DEVD)2-rhodamine-Ac), “linear increase in fluorescence”.

In the case of “(Ac-nTPR)2-rhodamine-Lys(Ac) [compound 3]”, the “fluorescence signal (enzymatic hydrolysis of the rhodamine substrate)” value in assay [1] is “strong fluorescent signal”; in assay [1] (listed as (nTPR)2-rhodamine-Ac), “linear increase in fluorescence”; in assay [2], “only a slight increase in fluorescence”.
